“And” between values parts separate entries of the source, which are not always exact repeats. Equal entries are not always repeated.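 96-well plates; 48 h exposure; 5 concentrations. Endpoints by linear interpolation between flanking doses. Not reached: highest tested concentration assigned. GI50 is the concentration that inhibits growth by half. TGI: total growth inhibition.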
Tests used:
Assay in all cases: NCI-60 cell line screen, 48 h
[1] = system: HCC-2998 colon
[2] = system: UACC-257 melanoma
[3] = system: NCI-H522 lung
[4] = system: SF-539 CNS
[5] = system: LOX IMVI melanoma
[6] = system: EKVX NSCLC
[7] = system: KM12 colon
[8] = system: MCF7 breast
[9] = system: CAKI-1 renal
[10] = system: 786-0 renal

Row | SMILES | TGI [1] | TGI [2] [µM] | TGI [3] [µM] | TGI [4] [µM] | TGI [5] [µM] | TGI [6] | TGI [7] | TGI [8] [µM] | TGI [9] [µM] | TGI [10] | GI50 [2] | GI50 [3] | GI50 [6] | GI50 [1] [nM] | GI50 [4] [nM] | GI50 [5] [nM] | GI50 [7] [nM] | GI50 [9] | GI50 [8] [nM]
1 | C/C(=C\c1ccccc1)C(=O)CCN1CCOCC1 | 34.4 µM | 30.6 | 22.3 | 34.6 | 34.6 | 42.7 µM | 31.2 µM | 20.9 | 32.5 |  |  |  |  |  |  |  |  |  | 
2 | O=C1CCSSCCC(=O)NCCN1 |  | > 100 | > 100 | > 100 | > 100 | > 100 µM | > 100 µM |  | > 100 | > 100 µM |  |  |  |  |  |  |  |  | 
3 | NC(CSCc1ccccc1)C(=O)O (centres undefined) | > 100 µM | > 100 | > 100 |  | > 100 | > 100 µM | > 100 µM | > 100 | > 100 | > 100 µM |  |  |  |  |  |  |  |  | 
4 | C/C(=N/NC(N)=S)c1ccc2ccccc2c1 | 34.9 µM | > 100 | 41 | 44.4 | > 100 | 37.3 µM | > 100 µM |  |  |  |  |  |  |  |  |  |  |  | 
5 | CCC1=CCC23C(=O)C=CC(=O)C2(C1)C(=O)c1cccc(OC)c1C3=O (centres undefined) |  | 30.1 | > 100 | 32.9 | 29.9 | 32.9 µM | 43.6 µM | 32.8 | 26.1 | 24.8 µM |  |  |  |  |  |  |  |  | 
6 | c1ccc2c(c1)[nH]c1nc3cc(-c4ccc5nc6c(nc5c4)[nH]c4ccccc46)ccc3nc12 | > 100 µM | > 100 | 78.4 |  | > 100 | > 100 µM | > 100 µM | > 100 | > 100 | > 100 µM |  |  |  |  |  |  |  |  | 
7 | Nn1c(CCCCCCCCc2nnc(COc3c(O)ccc4ccccc34)n2N)nnc1COc1c(O)ccc2ccccc12 | > 100 µM | > 100 | > 100 |  |  | > 100 µM | > 100 µM | > 100 | > 100 | > 100 µM |  |  |  |  |  |  |  |  | 
8 | CCCCn1c2c(n(CCCC)c1=S)-c1c(n(CCCC)c(=S)n1CCCC)S[Se][Se]S2 | 61.6 µM | 30.8 | 0.479 | 12.5 | 27.2 | 24.3 µM | > 53.5 µM | > 100 |  | > 43.9 µM |  |  |  |  |  |  |  |  | 
9 | CN(C)NC(=S)Nc1ccccc1Br |  | > 100 | > 100 | > 100 | > 100 | > 100 µM | > 100 µM | > 100 | > 100 | > 100 µM |  |  |  |  |  |  |  |  | 
10 | CCC(C(=O)O)c1ccc(OCc2ccccc2)cc1 (centres undefined) | > 100 µM | > 100 | > 100 | > 100 | > 100 | > 100 µM | > 100 µM |  | > 100 |  |  |  |  |  |  |  |  |  | 
11 | O=C1/C(=C/c2ccccc2S)N=C(c2ccccc2)N1c1nc2ccc(Sc3ccccc3)cc2[nH]1 | 37.6 µM | 69.2 | 54.2 |  | > 100 | > 100 µM | > 100 µM | 84.5 | > 100 | 87.1 µM |  |  |  |  |  |  |  |  | 
12 | CN(C)C(CN)CC1=C(CC(CN)N(C)C)CCC1 (centres undefined) | > 100 µM | > 100 | > 100 | > 100 | > 100 | > 100 µM | > 100 µM | > 100 | > 100 |  |  |  |  |  |  |  |  |  | 
13 | CCOC(=O)C1=C(C(C)=O)CSC(c2ccccc2)=N1 | > 100 µM | > 100 | > 100 | > 100 | > 100 | > 100 µM | > 100 µM | > 100 | > 100 |  |  |  |  |  |  |  |  |  | 
14 | CCN(CC)CCNc1ccc2nnn3c4ccc(OC)cc4c(=O)c1c23 |  | 25.1 | 19.6 | 17.2 | 11.1 |  | 13.9 µM |  | 27.6 | 17.9 µM |  |  |  |  |  |  |  |  | 
15 | CSC1CC2C(CC1(C)O)C2(C)C (centres undefined) | > 100 µM | > 100 | > 100 | > 100 | > 100 | 92.1 µM and > 100 µM | > 100 µM |  | > 100 | > 100 µM | 40.8 µM and > 100 µM | 33.8 µM and > 100 µM | 13300 nM and > 100000 nM |  |  |  |  |  | 
16 | CC(C)(C)C1=Cc2cc3cc(C(C)(C)C)[nH]c(=O)c3cc2S(=O)(=O)N1 |  | 58.7 | 32.3 |  |  | 44.1 µM | 94.6 µM |  | 38.5 | > 100 µM |  |  |  |  |  |  |  |  | 
17 | CC(C)(C)NC(=O)[C@H]1CC[C@H]2[C@@H]3CC=C4NC(=O)CC[C@]4(C)[C@H]3CC[C@]12C | > 100 µM | > 100 | > 100 | > 100 | > 100 | > 100 µM | > 100 µM | > 100 |  | > 100 µM |  |  |  |  |  |  |  |  | 
18 | Nc1nn2c(C(Br)Br)cc(C(Br)Br)nc2c1[N+](=O)[O-] | 4.52 µM | 3.11 | 0.248 | 1.16 | 0.799 | 6.45 µM | 2.83 µM |  | 0.954 | 1.08 µM |  |  |  |  |  |  |  |  | 
19 | CCCCN1CCN(c2ccc3nc(-c4ccc5nc(-c6ccc(C(F)(F)F)cc6)[nH]c5c4)[nH]c3c2)CC1 | 3.55 µM | 3.41 | 3.49 | 3.02 | 2.27 | 3.07 µM | 2.68 µM |  | 2.69 |  | 1.78 µM | 1.78 µM | 1570 nM | 1840 | 1590 | 839 | 1120 | 1380 nM | 
20 | O=C(CP(=O)(O)O)c1cccs1 | > 100 µM | > 100 | > 100 | > 100 | > 100 | > 100 µM | > 100 µM |  | > 100 | > 100 µM |  |  |  |  |  |  |  |  | 
21 | C=C1C(O)C2(O)OCC34C(CC5C(C)=CC(=O)C(O)C5(C)C23)OC(=O)C(OC(=O)C/C=C(\C)CCCCC)C14 (centres undefined) | 0.00222 µM and 0.019 µM |  |  |  |  |  | 0.0201 µM and 0.019 µM and 0.0342 µM |  |  | 0.00681 µM and 0.0244 µM | < 0.001 µM | < 0.001 µM | 47.9 nM | < 1 | < 1 |  | < 1 | 27.4 nM and 87.5 nM | < 1
22 | Cc1cc2c(C)cc(=O)[nH]c2cc1N | > 100 µM | > 100 |  | > 100 | > 100 | > 100 µM | > 100 µM | > 100 | > 100 | > 100 µM |  |  |  |  |  |  |  |  | 
23 | COC(=O)c1ccccc1/C=C1/Cc2ccccc2C1=O | > 100 µM | 68.1 | > 100 | > 100 | 39.9 | > 100 µM | 96.5 µM | > 100 | > 100 |  |  |  |  |  |  |  |  |  | 
